Reference: patent publication US4988687A, “Cephalosporin derivatives, and antibacterial agents” (priority 1986, dated 1991)
Values after ≈ are worked out from the molar mass of the structure shown. Like-named read-outs stand apart in the source and are kept apart here.

Key:
E. coli CSH(RE45) = experiment: agar plate dilution method, MIC against E. coli CSH(RE45); type: cell-based; conditions: Escherichia coli, 16 h, read-out: Minimum Inhibitory Concentration (MIC)
Protocol: (§1) The in vitro antibacterial activities of the compounds of the present invention against various microorganisms, were measured by the following agar plate dilution method. One platinum loopfull of each test microorganism incubated overnight in Mueller Hinton broth, was inoculated to Mueller Hinton agar (inoculum size: 10^6 CFU/ml) Such culture media containing various antibiotics in various concentrations were prepared After incubation at 37° C. for 16 hours, the minimum inhibitory concentrations (MIC: μg/ml) were measured. As comparative compounds, cefotaxime, oeftazidime and the compounds disclosed in Example 2 of Japanese Unexamined Patent Publication No. 215690/1985 e.g. sodium 7-[2-(2-aminothiazol-4-yl)-2-ethoxyiminoacetamido]-3-(1-carboxylatemethylpyridinio-4-yl)thiomethyl-3-cephem-4-carboxylate (hereinafter referred to simply as "Reference Example A") were employed.

S. marcescens IAM 1184 = experiment: agar plate dilution method, MIC against S. marcescens IAM 1184; type: cell-based; conditions: Serratia marcescens, IAM1184; S. marcescens IAM 1184; 10^6 CFU/ml, 37° C., 16 hours; read-out: Minimum Inhibitory Concentration (MIC)
Protocol: as §1

Ps. aeruginosa AKR17 = experiment: agar plate dilution method, MIC against Ps. aeruginosa AKR17; type: cell-based; conditions: Pseudomonas aeruginosa, AKR17, 16 h, read-out: Minimum Inhibitory Concentration (MIC)
Protocol: as §1

E. coli CSH2 (RK1) = experiment: agar plate dilution method, MIC against E. coli CSH2 (RK1); type: cell-based; conditions: Escherichia coli, 16 h, read-out: Minimum Inhibitory Concentration (MIC)
Protocol: as §1

S. aureus BB5703 = experiment: agar plate dilution method, MIC against S. aureus BB5703; type: cell-based; conditions: Staphylococcus aureus, BB5703, 16 h, read-out: Minimum Inhibitory Concentration (MIC)
Protocol: as §1

M. luteus ATCC9341 = experiment: agar plate dilution method, MIC against M. luteus ATCC9341; type: cell-based; conditions: Micrococcus luteus, read-out: Minimum Inhibitory Concentration (MIC)
Protocol: as §1

C. freundii GN346/16 = experiment: agar plate dilution method, MIC against C. freundii GN346/16; type: cell-based; conditions: Citrobacter freundii; C. freundii GN346/16; 10^6 CFU/ml, 37° C., 16 hours; read-out: Minimum Inhibitory Concentration (MIC)
Protocol: as §1

A. calcoaceticus No. 4 = experiment: agar plate dilution method, MIC against A. calcoaceticus No. 4; type: cell-based; conditions: Acinetobacter calcoaceticus; A. calcoaceticus No. 4; 10^6 CFU/ml, 37° C., 16 hours; read-out: Minimum Inhibitory Concentration (MIC)
Protocol: as §1

P. vulgaris No. 33 = experiment: agar plate dilution method, MIC against P. vulgaris No. 33; type: cell-based; conditions: Proteus vulgaris; P. vulgaris No. 33 (lactamase-producing strain); 10^6 CFU/ml, 37° C., 16 hours; read-out: Minimum Inhibitory Concentration (MIC)
Protocol: as §1

K. oxytoca GN10650 = experiment: agar plate dilution method, MIC against K. oxytoca GN10650; type: cell-based; conditions: Klebsiella oxytoca, read-out: Minimum Inhibitory Concentration (MIC)
Protocol: as §1

E. coli NIHJ JC2 = experiment: agar plate dilution method, MIC against E. coli NIHJ JC2; type: cell-based; conditions: Escherichia coli, NIHJJC2; E. coli NIHJ JC2; 10^6 CFU/ml, 37° C., 16 hours; read-out: Minimum Inhibitory Concentration (MIC)
Protocol: as §1

Ps. cepacia 23 = experiment: agar plate dilution method, MIC against Ps. cepacia 23; type: cell-based, Pseudomonas cepacia; conditions: Burkholderia cepacia, 23, 16 h, read-out: Minimum Inhibitory Concentration (MIC)
Protocol: as §1

P. vulgaris HX-19 = experiment: agar plate dilution method, MIC against P. vulgaris HX-19; type: cell-based; conditions: Proteus vulgaris, read-out: Minimum Inhibitory Concentration (MIC)
Protocol: as §1

E. cloacae Nek 39 = experiment: agar plate dilution method, MIC against E. cloacae Nek 39; type: cell-based; conditions: Enterobacter cloacae, NEK39; E. cloacae Nek 39 (lactamase-producing strain); 10^6 CFU/ml, 37° C., 16 hours; read-out: Minimum Inhibitory Concentration (MIC)
Protocol: as §1

M. morganii GN5407 = experiment: agar plate dilution method, MIC against M. morganii GN5407; type: cell-based; conditions: Morganella morganii; M. morganii GN5407 (lactamase-producing strain); 10^6 CFU/ml, 37° C., 16 hours; read-out: Minimum Inhibitory Concentration (MIC)
Protocol: as §1

E. coli GN5482 = experiment: agar plate dilution method, MIC against E. coli GN5482; type: cell-based; conditions: Escherichia coli; E. coli GN5482 (lactamase-producing strain); 10^6 CFU/ml, 37° C., 16 hours; read-out: Minimum Inhibitory Concentration (MIC)
Protocol: as §1

S. aureus JS1 = experiment: agar plate dilution method, MIC against S. aureus JS1; type: cell-based; conditions: Staphylococcus aureus, read-out: Minimum Inhibitory Concentration (MIC)
Protocol: as §1

K. pneumoniae PCI-602 = experiment: agar plate dilution method, MIC against K. pneumoniae PCI-602; type: cell-based; conditions: Klebsiella pneumoniae, PCI602, 16 h, read-out: Minimum Inhibitory Concentration (MIC)
Protocol: as §1

K. pneumoniae No. 42 = experiment: agar plate dilution method, MIC against K. pneumoniae No. 42; type: cell-based; conditions: Klebsiella pneumoniae, read-out: Minimum Inhibitory Concentration (MIC)
Protocol: as §1

Ps. aeruginosa AK 109 = experiment: agar plate dilution method, MIC against Ps. aeruginosa AK 109; type: cell-based; conditions: Pseudomonas aeruginosa, AK109; Ps. aeruginosa AK 109; 10^6 CFU/ml, 37° C., 16 hours; read-out: Minimum Inhibitory Concentration (MIC)
Protocol: as §1

S. aureus 209P NIHJ-JC1 = experiment: agar plate dilution method, MIC against S. aureus 209P NIHJ-JC1; type: cell-based; conditions: Staphylococcus aureus, read-out: Minimum Inhibitory Concentration (MIC)
Protocol: as §1

E. cloacae 963 = experiment: agar plate dilution method, MIC against E. cloacae 963; type: cell-based; conditions: Enterobacter cloacae; E. cloacae 963; 10^6 CFU/ml, 37° C., 16 hours; read-out: Minimum Inhibitory Concentration (MIC)
Protocol: as §1

[1] = tested on: sensitive and resistant Gram-positive bacteria and Gram-negative bacteria particularly glucose non-fermentative Gram-negative rods; experiment: antibacterial activity and spectrum (in words); type: cell-based; conditions: in vitro
Protocol: as §1

S. marcescens No. 16-2 = experiment: agar plate dilution method, MIC against S. marcescens No. 16-2; type: cell-based; conditions: Serratia marcescens, read-out: Minimum Inhibitory Concentration (MIC)
Protocol: as §1

S. epidermidis IAM12012 = experiment: agar plate dilution method, MIC against S. epidermidis IAM12012; type: cell-based; conditions: Staphylococcus epidermidis, IAM12012, 16 h, read-out: Minimum Inhibitory Concentration (MIC)
Protocol: as §1

C. freundii GN346 = experiment: agar plate dilution method, MIC against C. freundii GN346; type: cell-based; conditions: Citrobacter freundii; C. freundii GN346 (lactamase-producing strain); 10^6 CFU/ml, 37° C., 16 hours; read-out: Minimum Inhibitory Concentration (MIC)
Protocol: as §1

Ps. aeruginosa IFO3445 = experiment: agar plate dilution method, MIC against Ps. aeruginosa IFO3445; type: cell-based; conditions: Pseudomonas aeruginosa; Ps. aeruginosa IFO3445; 10^6 CFU/ml, 37° C., 16 hours; read-out: Minimum Inhibitory Concentration (MIC)
Protocol: as §1

Ps. maltophilia GN 12873 = experiment: agar plate dilution method, MIC against Ps. maltophilia GN 12873; type: cell-based, Pseudomonas maltophilia; conditions: Stenotrophomonas maltophilia, GN12873; Ps. maltophilia GN 12873 (lactamase-producing strain); 10^6 CFU/ml, 37° C., 16 hours; read-out: Minimum Inhibitory Concentration (MIC)
Protocol: as §1

Structure (SMILES)	MIC (E. coli CSH(RE45)) [µg/mL]	MIC (S. marcescens IAM 1184) [µg/mL]	MIC (Ps. aeruginosa AKR17) [µg/mL]	MIC (E. coli CSH2 (RK1)) [µg/mL]	MIC (S. aureus BB5703) [µg/mL]	MIC (C. freundii GN346/16) [µg/mL]	MIC (A. calcoaceticus No. 4) [µg/mL]	MIC (P. vulgaris No. 33) [µg/mL]	MIC (E. coli NIHJ JC2) [µg/mL]	MIC (Ps. cepacia 23) [µg/mL]	MIC (E. cloacae Nek 39) [µg/mL]	MIC (M. morganii GN5407) [µg/mL]	MIC (E. coli GN5482) [µg/mL]	MIC (K. pneumoniae PCI-602) [µg/mL]	MIC (Ps. aeruginosa AK 109) [µg/mL]	MIC (E. cloacae 963) [µg/mL]	antibacterial activities and antibacterial spectrum (in words) [1]	MIC (S. epidermidis IAM12012) [µg/mL]	MIC (C. freundii GN346) [µg/mL]	MIC (Ps. aeruginosa IFO3445) [µg/mL]	also measured
Nc1nc(C(=NOC(C(=O)O)c2ccc(O)c(O)c2)C(=O)NC2C(=O)N3C(C(=O)[O-])=C(CSc4cc[n+](CC(=O)O)cc4)CSC23)cs1 (stereo not drawn) [Example 5, 7-[2-(2-aminothiazol-4-yl)-2-(α-carboxy-3,4-dihydroxybenzyloxyimino)acetamido]-3-(1-carboxymethylpyridinio-4-yl)thiomethyl-3-cephem-4-carboxylate (syn-isomer)]	0.05 (≈ 0.0698 µM)	0.1 (≈ 0.14 µM)	1.56 (≈ 2.18 µM)	0.05 (≈ 0.0698 µM)	3.12 (≈ 4.35 µM)	0.39 (≈ 0.544 µM)	0.2 (≈ 0.279 µM)	0.05 (≈ 0.0698 µM)	0.1 (≈ 0.14 µM)	< 0.006	0.2 (≈ 0.279 µM)	0.1 (≈ 0.14 µM)	0.2 (≈ 0.279 µM)	< 0.006	0.78 (≈ 1.09 µM)	0.1 (≈ 0.14 µM)	excellent antibacterial activities and a broad antibacterial spectrum	1.56 (≈ 2.18 µM)	25 (≈ 34.9 µM)	0.39 (≈ 0.544 µM)	MIC (M. luteus ATCC9341; M. luteus ATCC9341, 10^6 CFU/ml, 37° C., 16 hours): 0.78 µg/mL (≈ 1.09 µM); MIC (K. oxytoca GN10650; K. oxytoca GN10650 (lactamase-producing strain), 10^6 CFU/ml, 37° C., 16 hours): 0.05 µg/mL (≈ 0.0698 µM); MIC (P. vulgaris HX-19; HX19, 16 h): 0.025 µg/mL (≈ 0.0349 µM); MIC (S. aureus JS1; JS1, 16 h): 6.25 µg/mL (≈ 8.72 µM); MIC (K. pneumoniae No. 42; K. pneumoniae No. 42 (lactamase-producing strain), 10^6 CFU/ml, 37° C., 16 hours): 0.2 µg/mL (≈ 0.279 µM); MIC (S. aureus 209P NIHJ-JC1; S. aureus 209P NIHJ-JC1, 10^6 CFU/ml, Mueller Hinton agar, 37° C., 16 hours): 0.78 µg/mL (≈ 1.09 µM); MIC (S. marcescens No. 16-2; NO.162, S. marcescens No. 16-2 (lactamase-producing strain), 10^6 CFU/ml, 37° C., 16 hours): 0.78 µg/mL (≈ 1.09 µM); MIC (Ps. maltophilia GN 12873): > 100 µg/mL
CC(=O)Oc1ccc(C(O/N=C(\C(=O)NC2C(=O)N3C(C(=O)[O-])=C(CSc4cc[n+](CC(=O)O)cc4)CSC23)c2csc(N)n2)C(=O)O)cc1OC(C)=O (stereo not drawn) [Example 6, disodium 7-[2-(2-aminothiazol-4-yl)-2-(α-carboxylate-3,4-diacetoxybenzyloxyimino)acetamido]-3-(1-carboxylatemethylpyridinio-4-yl)thiomethyl-3-cephem-4-carboxylate (syn-isomer)]	0.05	0.2	1.56	0.05	6.25	0.39	0.39	0.1	0.2	0.025	0.78	0.2	0.39	< 0.006	0.78	0.39	excellent antibacterial activities and a broad antibacterial spectrum	3.12	25	0.78	MIC (M. luteus ATCC9341; ATCC9341, 16 h): 3.12 µg/mL; MIC (K. oxytoca GN10650; GN10650, 16 h): 0.2 µg/mL; MIC (P. vulgaris HX-19; HX19, P. vulgaris HX-19, 10^6 CFU/ml, 37° C., 16 hours): 0.1 µg/mL; MIC (S. aureus JS1; S. aureus JS1 (methicilline resistant; lactamase-producing strain), 10^6 CFU/ml, 37° C., 16 hours): 25 µg/mL; MIC (K. pneumoniae No. 42; NO.42, 16 h): 0.1 µg/mL; MIC (S. aureus 209P NIHJ-JC1; 16 h): 1.56 µg/mL; MIC (S. marcescens No. 16-2; NO.162, 16 h): 1.56 µg/mL; MIC (Ps. maltophilia GN 12873): > 100 µg/mL
